{"source": "paper PMC10303012", "about": "“Volatile Short-Chain Aliphatic Aldehydes Act as Taste Modulators through the Orally Expressed Calcium-Sensing Receptor CaSR” (Molecules, 2023)", "format_in_all_cases": "cell-based", "key": {"[1]": {"target": "T1, calcium-sensing receptor CaSR (Homo sapiens, UniProt P41180)", "T1 sequence (P41180 20-1078)": "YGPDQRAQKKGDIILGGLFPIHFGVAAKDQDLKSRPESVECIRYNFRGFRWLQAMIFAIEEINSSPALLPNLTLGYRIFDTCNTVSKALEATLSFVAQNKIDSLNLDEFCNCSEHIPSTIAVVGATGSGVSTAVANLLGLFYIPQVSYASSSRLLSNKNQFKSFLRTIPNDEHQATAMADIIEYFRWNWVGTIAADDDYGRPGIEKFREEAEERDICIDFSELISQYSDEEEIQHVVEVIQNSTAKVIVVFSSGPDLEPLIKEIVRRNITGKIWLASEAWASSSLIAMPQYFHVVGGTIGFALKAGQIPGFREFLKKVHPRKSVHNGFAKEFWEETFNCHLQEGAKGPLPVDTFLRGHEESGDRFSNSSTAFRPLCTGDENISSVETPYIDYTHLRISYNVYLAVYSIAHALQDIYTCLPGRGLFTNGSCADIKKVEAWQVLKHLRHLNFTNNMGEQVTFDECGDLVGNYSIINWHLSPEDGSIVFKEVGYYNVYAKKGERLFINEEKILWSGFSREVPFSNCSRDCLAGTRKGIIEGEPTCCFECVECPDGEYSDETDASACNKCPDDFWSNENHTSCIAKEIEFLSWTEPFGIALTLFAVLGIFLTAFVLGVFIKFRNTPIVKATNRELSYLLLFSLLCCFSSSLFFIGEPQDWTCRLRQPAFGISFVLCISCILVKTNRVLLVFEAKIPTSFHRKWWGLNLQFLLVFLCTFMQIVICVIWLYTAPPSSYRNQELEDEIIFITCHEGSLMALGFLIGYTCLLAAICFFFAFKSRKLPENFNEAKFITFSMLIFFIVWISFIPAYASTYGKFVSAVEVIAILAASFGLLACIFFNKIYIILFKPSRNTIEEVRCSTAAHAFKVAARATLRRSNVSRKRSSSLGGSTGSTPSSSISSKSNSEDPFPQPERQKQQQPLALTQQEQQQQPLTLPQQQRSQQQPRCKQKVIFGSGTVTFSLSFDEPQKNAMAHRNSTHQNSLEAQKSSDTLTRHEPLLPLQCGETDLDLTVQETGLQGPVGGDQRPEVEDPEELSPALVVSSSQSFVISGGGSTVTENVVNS", "experiment": "calcium mobilization assay in PEAKrapid cells transiently expressing human CaSR, with mock control"}, "[2]": {"target": "T1, calcium-sensing receptor CaSR", "experiment": "calcium mobilization assay in PEAKrapid cells transiently expressing human CaSR, with mock control", "remark": "listed apart in the source"}, "[3]": {"target": "T1, calcium-sensing receptor CaSR", "experiment": "calcium mobilization assay in PEAKrapid cells transiently expressing human CaSR; potentiation of CaCl2 response at […]"}}}
{"molecule": "CC(C)CC=O", "note": "[IVAH, isovaleraldehyde]", "values": [{"measurement": "EC50", "setting": "[1]", "result": 681, "unit": "µM"}]}
{"molecule": "CCCCCC=O", "note": "[hexanal]", "values": [{"measurement": "calcium mobilization assay in PEAKrapid cells transiently expressing human CaSR,", "setting": "[2]", "result": "2-methylbutylaldehyde (D,I), pentanal (E,I), hexanal (F,I)"}]}
{"molecule": "CCCCC=O", "note": "[pentanal]", "values": [{"measurement": "calcium mobilization assay in PEAKrapid cells transiently expressing human CaSR,", "setting": "[2]", "result": "2-methylbutylaldehyde (D,I), pentanal (E,I), hexanal (F,I)"}]}
{"molecule": "CCC(C)C=O", "note": "(centres unmarked) [2-methylbutylaldehyde]", "values": [{"measurement": "calcium mobilization assay in PEAKrapid cells transiently expressing human CaSR,", "setting": "[2]", "result": "CaSR was activated by propionaldehyde (A,I), butanal (B,I), isobutylaldehyde (C,I), 2-methylbutylaldehyde (D,I)"}]}
{"molecule": "CCC=O", "note": "[propionaldehyde]", "values": [{"measurement": "calcium mobilization assay in PEAKrapid cells transiently expressing human CaSR,", "setting": "[2]", "result": "CaSR was activated by propionaldehyde (A,I)"}]}
{"molecule": "CC(C)C=O", "note": "[isobutylaldehyde]", "values": [{"measurement": "calcium mobilization assay in PEAKrapid cells transiently expressing human CaSR,", "setting": "[2]", "result": "CaSR was activated by propionaldehyde (A,I), butanal (B,I), isobutylaldehyde (C,I)"}]}
{"molecule": "CCCC=O", "note": "[butanal]", "values": [{"measurement": "calcium mobilization assay in PEAKrapid cells transiently expressing human CaSR,", "setting": "[2]", "result": "CaSR was activated by propionaldehyde (A,I), butanal (B,I)"}]}
{"molecule": "CSCCC=O", "note": "[MTN, methional]", "values": [{"measurement": "calcium mobilization assay in PEAKrapid cells transiently expressing human CaSR,", "setting": "[3]", "result": "only methional activated CaSR, while neither of the methional analogues tested activated CaSR"}]}
